Test results taken from US10780090B2, “Heteroaryl compounds useful as inhibitors of SUMO activating enzyme” (Millennium Pharmaceuticals, Inc., priority 2014, dated 2020).

Biological target: recombinant human SAE enzyme (Homo sapiens (Human), UniProt Q9UBT2)
Assay: SAE HTRF enzyme assay
Type: biochemical
Conditions: for Percent Inhibition: Concentration 0.111 μM; for IC50: class symbols A/B/C
Outline: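 First, recombinant human SAE (0.11 nM) transfers Sumo-Flag onto Ubc9-GST using 0.5 μM ATP for 105 min at 24° C. Next, EDTA-containing detection buffer with labelled anti-Flag and anti-GST antibodies is added for 2 h. Finally, FRET is quantified and percent inhibition or IC50 derived.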

Sequence of recombinant human SAE enzyme (Q9UBT2 whole entry): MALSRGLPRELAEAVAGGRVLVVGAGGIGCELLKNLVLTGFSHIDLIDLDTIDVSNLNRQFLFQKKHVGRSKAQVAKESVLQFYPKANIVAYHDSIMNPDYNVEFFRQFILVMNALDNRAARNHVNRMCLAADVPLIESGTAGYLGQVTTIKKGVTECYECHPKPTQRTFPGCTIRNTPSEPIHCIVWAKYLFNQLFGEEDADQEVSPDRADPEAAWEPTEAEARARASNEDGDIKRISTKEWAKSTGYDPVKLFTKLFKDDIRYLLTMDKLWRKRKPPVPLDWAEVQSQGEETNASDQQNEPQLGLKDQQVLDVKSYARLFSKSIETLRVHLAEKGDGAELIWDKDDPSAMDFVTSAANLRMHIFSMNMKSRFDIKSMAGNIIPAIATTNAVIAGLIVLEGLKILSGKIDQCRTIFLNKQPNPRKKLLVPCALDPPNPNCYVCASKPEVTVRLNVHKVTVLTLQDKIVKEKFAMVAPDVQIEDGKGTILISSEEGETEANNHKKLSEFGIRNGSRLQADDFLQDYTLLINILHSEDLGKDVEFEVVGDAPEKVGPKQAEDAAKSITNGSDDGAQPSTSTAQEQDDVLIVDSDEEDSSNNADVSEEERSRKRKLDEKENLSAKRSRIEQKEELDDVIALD
Sequence of recombinant human SAE enzyme (Q9UBE0 whole entry partner): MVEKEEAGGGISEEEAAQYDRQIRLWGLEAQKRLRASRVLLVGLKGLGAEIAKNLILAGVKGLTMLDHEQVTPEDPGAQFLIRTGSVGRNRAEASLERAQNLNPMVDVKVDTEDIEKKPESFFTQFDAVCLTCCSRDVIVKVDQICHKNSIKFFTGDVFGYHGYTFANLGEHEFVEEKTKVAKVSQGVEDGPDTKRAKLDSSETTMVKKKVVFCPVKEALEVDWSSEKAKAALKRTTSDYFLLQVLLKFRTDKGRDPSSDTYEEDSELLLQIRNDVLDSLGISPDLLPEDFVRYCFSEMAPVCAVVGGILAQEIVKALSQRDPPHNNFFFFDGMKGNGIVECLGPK

Compound | Percent Inhibition | IC50 [µM]
CN[C@H](c1cccc(Cl)c1)c1csc(C(=O)c2cncnc2N[C@@H]2C[C@H](COS(N)(=O)=O)[C@@H](O)C2)c1 (single isomer, unassigned) [I-47a, [(1R,2S,4R)-4-{[5-({4-[(R)-(3-chlorophenyl)(methylamino)methyl]-2-thienyl}carbonyl)pyrimidin-4-yl]amino}-2-hydroxycyclopentyl]methyl sulfamate or [(1R,2S,4R)-4-{[5-({4-[(S)-(3-chlorophenyl)(methylamino)methyl]-2-thienyl}carbonyl)pyrimidin-4-yl]amino}-2-hydroxycyclopentyl]methyl sulfamate] | 99 | < 0.01
CN[C@H](c1cccc(Cl)c1)c1csc(C(=O)c2cncnc2N[C@@H]2C[C@H](COS(N)(=O)=O)[C@@H](O)C2)c1 (single isomer, unassigned) [I-47b, [(1R,2S,4R)-4-{[5-({4-[(R)-(3-chlorophenyl)(methylamino)methyl]-2-thienyl}carbonyl)pyrimidin-4-yl]amino}-2-hydroxycyclopentyl]methyl sulfamate or [(1R,2S,4R)-4-{[5-({4-[(S)-(3-chlorophenyl)(methylamino)methyl]-2-thienyl}carbonyl)pyrimidin-4-yl]amino}-2-hydroxycyclopentyl]methyl sulfamate] | 99 | < 0.01
C[C@](O)(c1ccccc1)c1coc(C(=O)c2cncnc2N[C@@H]2C[C@H](COS(N)(=O)=O)[C@@H](O)C2)c1 (single isomer, unassigned) [I-58a, {(1R,2S,4R)-2-hydroxy-4-[(5-{4-[(1S)-1-hydroxy-1-phenylethyl]-2-furoyl}pyrimidin-4-yl)amino]cyclopentyl}methyl sulfamate or {(1R,2S,4R)-2-hydroxy-4-[(5-{4-[(1R)-1-hydroxy-1-phenylethyl]-2-furoyl}pyrimidin-4-yl)amino]cyclopentyl}methyl sulfamate] | 87 | 0.01 to 0.1
C[C@](O)(c1ccccc1)c1coc(C(=O)c2cncnc2N[C@@H]2C[C@H](COS(N)(=O)=O)[C@@H](O)C2)c1 (single isomer, unassigned) [I-58b, {(1R,2S,4R)-2-hydroxy-4-[(5-{4-[(1S)-1-hydroxy-1-phenylethyl]-2-furoyl}pyrimidin-4-yl)amino]cyclopentyl}methyl sulfamate or {(1R,2S,4R)-2-hydroxy-4-[(5-{4-[(1R)-1-hydroxy-1-phenylethyl]-2-furoyl}pyrimidin-4-yl)amino]cyclopentyl}methyl sulfamate] | 100 | < 0.01
CO[C@@H](c1cccc(Br)c1)c1csc(C(=O)c2cncnc2N[C@@H]2C[C@H](COS(N)(=O)=O)[C@@H](O)C2)c1 (single isomer, unassigned) [I-73a, [(1R,2S,4R)-4-{[({(4-[(S)-(3-Bromophenyl)(methoxy)methyl]-2-thienyl}carbonyl)pyrimidin-4-yl]amino}-2-hydroxycyclopentyl]methyl sulfamate or [(1R,2S,4R)-4-{[5-({4-[(R)-(3-Bromophenyl)(methoxy)methyl]-2-thienyl}carbonyl)pyrimidin-4-yl]amino}-2-hydroxycyclopentyl]methyl sulfamate] | 98 | < 0.01
CO[C@@H](c1cccc(Br)c1)c1csc(C(=O)c2cncnc2N[C@@H]2C[C@H](COS(N)(=O)=O)[C@@H](O)C2)c1 (single isomer, unassigned) [I-73b, [(1R,2S,4R)-4-{[5-({4-[(S)-(3-Bromophenyl)(methoxy)methyl-2-thienyl}carbonyl)pyrimidin-4-yl]amino}-2-hydroxycyclopentyl]methyl sulfamate or [(1R,2S,4R)-4-{[5-(4-[(R)-(3-Bromophenyl)(methoxy)methyl]-2-thienyl)carbonyl)pyrimidin-4-yl]amino}-2-hydroxycyclopentyl]methyl sulfamate] | 98 | < 0.01
CO[C@H](c1cccc(Cl)c1)c1cc(C(=O)c2cncnc2N[C@@H]2C[C@H](COS(N)(=O)=O)[C@@H](O)C2)sc1Cl (single isomer, unassigned) [I-90a, [(1R,2S,4R)-4-{[5-({5-chloro-4-[(R)-(3-chlorophenyl)(methoxy)methyl]-2-thienyl}carbonyl)pyrimidin-4-yl]amino}-2-hydroxycyclopentyl]methyl sulfamate or [(1R,2S,4R)-4-{[5-({5-chloro-4-[(S)-(3-chlorophenyl)(methoxy)methyl]-2-thienyl}carbonyl)pyrimidin-4-yl]amino}-2-hydroxycyclopentyl]methyl sulfamate] | 98 | < 0.01
CO[C@H](c1cccc(Cl)c1)c1cc(C(=O)c2cncnc2N[C@@H]2C[C@H](COS(N)(=O)=O)[C@@H](O)C2)sc1Cl (single isomer, unassigned) [I-90b, [(1R,2S,4R)-4-{[5-({5-chloro-4-[(R)-(3-chlorophenyl)(methoxy)methyl]-2-thienyl}carbonyl)pyrimidin-4-yl]amino}-2-hydroxycyclopentyl]methyl sulfamate or [(1R,2S,4R)-4-{[5-({5-chloro-4-[(S)-(3-chlorophenyl)(methoxy)methyl]-2-thienyl}carbonyl)pyrimidin-4-yl]amino}-2-hydroxycyclopentyl]methyl sulfamate] | 92 | 0.01 to 0.1
CC(O)(c1cccc(Cl)c1)c1cc(C(=O)c2cncnc2N[C@@H]2C[C@H](COS(N)(=O)=O)[C@@H](O)C2)sc1Cl (single isomer, unassigned) [I-102a, [(1R,2S,4R)-4-{[5-({5-chloro-4-[(1R)-1-(3-chlorophenyl)-1-hydroxyethyl]-2-thienyl}carbonyl)pyrimidin-4-yl]amino}-2-hydroxycyclopentyl]methyl sulfamate or [(1R,2S,4R)-4-{[5-({5-chloro-4-[(1S)-1-(3-chlorophenyl)-1-hydroxyethyl]-2-thienyl}carbonyl)pyrimidin-4-yl]amino}-2-hydroxycyclopentyl]methyl sulfamate] | 36 | 0.1 to 1
CC(O)(c1cccc(Cl)c1)c1cc(C(=O)c2cncnc2N[C@@H]2C[C@H](COS(N)(=O)=O)[C@@H](O)C2)sc1Cl (single isomer, unassigned) [I-102b, [(1R,2S,4R)-4-{[5-({5-chloro-4-[(1R)-1-(3-chlorophenyl)-1-hydroxyethyl]-2-thienyl}carbonyl)pyrimidin-4-yl]amino}-2-hydroxycyclopentyl]methyl sulfamate or [(1R,2S,4R)-4-{[5-({5-chloro-4-[(1S)-1-(3-chlorophenyl)-1-hydroxyethyl]-2-thienyl}carbonyl)pyrimidin-4-yl]amino}-2-hydroxycyclopentyl]methyl sulfamate] | 97 | < 0.01
CC(c1cccc(Cl)c1)c1csc(C(=O)c2cncnc2N[C@@H]2C[C@H](COS(N)(=O)=O)[C@@H](O)C2)c1 (single isomer, unassigned) [I-117a, [(1R,2S,4R)-4-{[5-({4-[(1S)-1-(3-chlorophenyl)ethyl]-2-thienyl}carbonyl)pyrimidin-4-yl]amino}-2-hydroxycyclopentyl]methyl sulfamate or [(1R,2S,4R)-4-{[5-({4-[(1R)-1-(3-chlorophenyl)ethyl]-2-thienyl}carbonyl)pyrimidin-4-yl]amino}-2-hydroxycyclopentyl]methyl sulfamate] | 73 | 0.01 to 0.1
